Experimental data reported in patent US12514843B2, “Biofilm disruption” (QBIOTICS PTY LTD, priority 2019, dated 2026).
Values after ≈ are worked out from the molar mass of the structure shown.

Key:
[1] = system: Acinetobacter baumannii 7789 (V19); test: Minimum inhibitory concentration (MIC) assay, planktonic culture, broth dilution; type: cell-based; set-up: key: C = confluent growth, i.e. no MIC could be determined at any concentration tested; conditions: A. baumannii, planktonic culture in Mueller-Hinton broth; mean of three replicate tests
Experimental: (§1) The effects of five epoxytiglienones (Compounds 1, 2, 3, 4 and 6) and two comparator comparator compounds (epoxytiglienones having longer carbon chains at the C12 position) on six human pathogenic bacteria (two Gram-positive and four Gram-negative species) were measured in conventional planktonic culture systems. A minimum inhibitory concentrations (MIC) assay (the standard assay employed to define and quantify antibiotic activity) was performed to determine antibacterial activity for each epoxytiglienone against each bacterial strain.
(§2) The Gram-positive bacteria used in this study were methicillin resistant Staphylococcus aureus (MRSA) 1004A and Streptococcus pyogenes. The Gram-negative bacteria used in this study were Pseudomonas aeruginosa PAO1, Escherichia coli IR57 (V7), Klebsiella pneumoniae, and Acinetobacter baumannii 7789 (V19). MIC assays were performed on planktonic cultures of each bacteria grown in Mueller-Hinton broth using the standard broth dilution method described by Jorgensen et al. (1999) using epoxytiglienones dissolved in ethanol.

[2] = system: Escherichia coli IR57 (V7); test: as above; type: cell-based; set-up: key: C = confluent growth, i.e. no MIC could be determined at any concentration tested; conditions: E. coli, planktonic culture in Mueller-Hinton broth; mean of three replicate tests
Experimental: as §1, §2

Klebsiella pneumoniae = test: as above; type: cell-based; set-up: key: C = confluent growth, i.e. no MIC could be determined at any concentration tested; conditions: K. pneumoniae, planktonic culture in Mueller-Hinton broth; mean of three replicate tests
Experimental: as §1, §2

[3] = system: Pseudomonas aeruginosa PAO1; test: as above; type: cell-based; set-up: key: C = confluent growth, i.e. no MIC could be determined at any concentration tested; conditions: P. aeruginosa, planktonic culture in Mueller-Hinton broth; mean of three replicate tests
Experimental: as §1, §2

Streptococcus pyogenes = test: as above; type: cell-based; set-up: key: C = confluent growth, i.e. no MIC could be determined at any concentration tested; conditions: S. pyogenes, planktonic culture in Mueller-Hinton broth; mean of three replicate tests
Experimental: as §1, §2

[4] = system: methicillin resistant Staphylococcus aureus (MRSA) 1004A; test: as above; type: cell-based; set-up: key: C = confluent growth, i.e. no MIC could be determined at any concentration tested; conditions: S. aureus, planktonic culture in Mueller-Hinton broth; mean of three replicate tests
Experimental: as §1, §2

E. coli IR57 biofilm [5] = test: Disruption of established in vitro biofilm, CLSM with COMSTAT image analysis; type: cell-based, Escherichia coli; conditions: E. coli IR57 24 h biofilm, 256 μg/mL, further 24 h; vs untreated and ethanol blank controls
Experimental: The effects of administration of Compounds 1, 4 and 6 and comparator compound CC-1 on disruption of established in vitro biofilms of Escherichia coli (E. coli) was investigated using methods described in Powell et al. (2018).
(§3) Biofilms of E. coli IR57 were grown on 96-well glass-bottomed plates in Mueller-Hinton (MH) broth for 24 h, before 50% of the supernatant was replaced with fresh MH broth with or without the epoxytiglienone compound added to a final concentration of 256 μg/mL (vehicle is ethanol). An ethanol equivalent blank was used as a further control treatment. The plates were then incubated for a further 24 h at 37° C.
(§4) Confocal laser scanning microscopy (CLSM) was then used to image the biofilms, following staining with Live/Dead® Baclight stain with phosphate buffered saline (PBS) added to each well before imaging with z-stack CLSM. The resultant images were analysed by COMSTAT software to produce measurements of (i) biofilm biomass volume or bio-volume (μm^3/μm^2) and (ii) DEAD/LIVE bacterial ratio.

[6] = system: A. baumannii 7789 biofilm; test: as above; type: cell-based, Acinetobacter baumannii; conditions: 256 μg/mL; for DEAD/LIVE bacterial ratio: vs untreated and ethanol blank controls; for biofilm bio-volume (COMSTAT): vs untreated and ethanol blank controls (p<0.05)
Experimental: as §3, §4
(§5) The effects of the epoxytiglienones (Compounds 1, 4, 6 and the comparator compound CC-1) on disruption of established in vitro biofilms were further investigated with two other species of Gram-negative bacteria (Pseudomonas aeruginosa PA01 and Acinetobacter baumannii 7789) using methods described in Example 2 above. Cell permeabilisation following Compound 1, 4 and 6 treatment was also determined using SYTOX™ Green Nucleic Acid Stain with untreated control and positive control of 70% isopropanol.

[7] = system: P. aeruginosa PAO1 biofilm; test: as above; type: cell-based, Pseudomonas aeruginosa; conditions: 256 μg/mL, vs untreated and ethanol blank controls
Experimental: as §3, §4, §5

E. coli IR57 biofilm [8] = test: Multiple particle tracking (MPT) of 200 nm FluoSpheres in established biofilm; type: cell-based, Escherichia coli; conditions: for Diffusion coefficient (Deff) ± standard deviation: 200 nm negatively-charged carboxylate-modified FluoSpheres in E. coli IR57 biofilms, 256 μg/mL, 24 h treatment; for mean squared displacement (MSD) of FluoSphere particles / biofilm creep compliance: E. coli IR57 biofilm, vs untreated and ethanol blank controls; for mean squared displacement (MSD) of FluoSphere particles: 200 nm FluoSpheres; for biofilm creep compliance: derived from MSD vs lag time
Experimental: The effect of three epoxytiglienones (Compounds 1, 4 and 6) on the assembly and permeability of established biofilms of E. coli was assessed using multiple particle tracking (MPT). MPT is a recently described technique, allowing simultaneous tracking of micron-size particles through biofilms using microscopy, from which the diffusion-based parameters of embedded particles within the extracellular polymeric matrix (EPS) of the biofilm can be determined (Cao et al. 2016). MPT measurements also allows for calculation of micro-rheological properties of the biofilm structure following treatment with test compounds.
E. coli biofilms were established and epoxytiglienone and control treatments applied as described in Example 2 above. Twenty-four hours after application of the treatments, the biofilms were stained with SYTO9® and 0.0025% of negatively-charged, carboxylate-modified FluoSpheres® (200 nm) added onto the biofilms and incubated for a further 2 hours. FluoSphere® particle movements within the biofilms were then captured on video using epifluorescence microscopy with a high frame-rate camera (33 ms). Particle trajectories were tracked using ImageJ softwaren (Mosaic) before calculation of three parameters of the 200 nm FluoSphere® particles: (i) ensemble diffusion coefficient (Deff), (ii) ensemble mean squared displacement (MSD) and (iii) creep compliance (a measure of resistance to mechanical deformation derived from the MSD vs lag time). Each treatment was replicated three times.

Compound | Minimum inhibitory concentrations [1] | Minimum inhibitory concentrations [2] | Minimum inhibitory concentrations (Klebsiella pneumoniae) | Minimum inhibitory concentrations [3] | Minimum inhibitory concentrations (Streptococcus pyogenes) | Minimum inhibitory concentrations [4] | biofilm bio-volume (COMSTAT) (E. coli IR57 biofilm [5]) | distribution and density of bacteria in the biofilm (CLSM) (E. coli IR57 biofilm [5]) | DEAD/LIVE bacterial ratio [6] | biofilm bio-volume (COMSTAT) [6] | DEAD/LIVE bacterial ratio [7] | Diffusion coefficient (Deff) ± standard deviation (E. coli IR57 biofilm [8]) [cm^2 · s^−1 × 10^−9] | mean squared displacement (MSD) of FluoSphere particles (E. coli IR57 biofilm [8]) | biofilm creep compliance (E. coli IR57 biofilm [8])
CCCCCC=CC=CC(=O)OC1C(C)C2(O)C(C3OC3(CO)C(O)C3(O)C(=O)C(C)=CC32)C2C(C)(C)C12OC(=O)C(C)CC (centres unmarked) [CC-1, 12-(2,4-decadienoyl)-13-(2-methylbutanoyl)-6,7-epoxy-4,5,9,12,13,20-hexahydroxy-1-tiglien-3-one, reference compound] | C | C | C | C | 8 µg/mL (≈ 12.7 µM) | 8 µg/mL (≈ 12.7 µM) | no apparent effect | no apparent effect | no significant differences | significant reductions | no significant differences | – | – | –
CCCCCC=CC=CC(=O)O[C@@H]1C(C)[C@]2(O)C(C3OC3(CO)[C@H](O)[C@@]3(O)C(=O)C(C)=CC23)C2C(C)(C)[C@]21OC(=O)C(C)CC (stereo partly drawn) [CC-2, 12R-(2,4-decadienoyl)-13R-(2-methylbutanoyl)-6,7-epoxy-4R,5R,9S,12R,13R,20-hexahydroxy-1-tiglien-3-one, reference compound] | C | C | C | C | 8 µg/mL (≈ 12.7 µM) | 16 µg/mL (≈ 25.4 µM) | – | – | – | – | – | – | – | –
C/C=C(\C)C(=O)O[C@@H]1[C@@H](C)[C@@]2(O)[C@H]([C@@H]3C(C)(C)[C@]13OC(=O)[C@@H](C)CC)[C@@H]1O[C@]1(CO)[C@@H](O)[C@]1(O)C(=O)C(C)=C[C@H]12 [Compound 1, 12-tigloyl-13-(2-methylbutanoyl)-6,7-epoxy-4,5,9,12,13,20-hexahydroxy-1-tiglien-3-one] | C | C | C | C | 128 µg/mL (≈ 227 µM) | 256 µg/mL (≈ 455 µM) | Significant decreases | significant changes | no significant differences | significant reductions | no significant differences | 0.6018 ± 0.0901 | substantially higher | increased
CCC(C)C(=O)OC1C(C)C2(O)C(C3OC3(CO)C(O)C3(O)C(=O)C(C)=CC32)C2C(C)(C)C12OC(=O)C(C)CC (centres unmarked) [Compound 2, 12,13-di-(2-methylbutanoyl)-6,7-epoxy-4,5,9,12,13,20-hexahydroxy-1-tiglien-3-one] | C | C | C | C | 128 µg/mL (≈ 227 µM) | 256 µg/mL (≈ 453 µM) | – | – | – | – | – | – | – | –
CCCCCC(=O)OC1C(C)C2(O)C(C3OC3(CO)C(O)C3(O)C(=O)C(C)=CC32)C2C(C)(C)C12OC(=O)C(C)CC (centres unmarked) [Compound 3, 12-hexanoyl-13-(2-methylbutanoyl)-6,7-epoxy-4,5,9,12,13,20-hexahydroxy-1-tiglien-3-one] | C | C | C | C | 128 µg/mL (≈ 221 µM) | 256 µg/mL (≈ 442 µM) | – | – | – | – | – | – | – | –
CCC(=O)OC1C(C)C2(O)C(C3OC3(CO)C(O)C3(O)C(=O)C(C)=CC32)C2C(C)(C)C12OC(=O)C(C)CC (centres unmarked) [Compound 6, 12-propanoyl-13-(2-methylbutanoyl)-6,7-epoxy-4,5,9,12,13,20-hexahydroxy-1-tiglien-3-one] | C | C | C | C | C | C | Decreases in bio-volume were evident | significant changes | no significant differences | – | no significant differences | 0.1607 ± 0.0104 | substantially higher | increased
